“Also recorded” adds a separate entry of the source.
Assays:
[1] = test system: C. jejuni; experiment: Kill or inhibit growth/proliferation; morphology, biofilm and growth disruption (Tables 5, 6); format: cell-based, Campylobacter jejuni; parameters: key: A: Peptide aggregates; B: Less hyphal formation; Clumps; Diffuse clumps and small polyps; F: Diffuse growth; H: Thin; I: Growth inhibition; Microcolony formation; Rippled; Small polyps; Thick; W: Halo formation on top, microlonies on bottom; further: test concentration or dose not given here
[2] = test system: E. coli; experiment: as above; format: cell-based, Escherichia coli; parameters: key: A: Peptide aggregates; B: Less hyphal formation; Clumps; Diffuse clumps and small polyps; F: Diffuse growth; H: Thin; I: Growth inhibition; Microcolony formation; Rippled; Small polyps; Thick; W: Halo formation on top, microlonies on bottom; further: test concentration or dose not given here
[3] = test system: microorganisms; experiment: Peptides having multiple activities (targeting/binding, antimicrobial, growth or phenotype altering)
Text: In certain embodiments, peptides described herein can have multiple activities. Thus for example, a peptide can have both binding/targeting activity and antimicrobial activity. Such peptides can be used, e.g., in a chimeric construct, for any or all of these properties. Thus, for example, a peptide designated “B” in Table 8 can be used as a targeting peptide. If it is also designated G or M it can also be used for antimicrobial activity.

[4] = test system: MRSA; experiment: Kill or inhibit growth/proliferation; morphology, biofilm and growth disruption (Tables 5, 6); format: cell-based, Methicillin-resistant Staphylococcus aureus; parameters: key: A: Peptide aggregates; B: Less hyphal formation; Clumps; Diffuse clumps and small polyps; F: Diffuse growth; H: Thin; I: Growth inhibition; Microcolony formation; Rippled; Small polyps; Thick; W: Halo formation on top, microlonies on bottom; further: test concentration or dose not given here
[5] = test system: S. epidermidis; experiment: as above; format: cell-based, Staphylococcus epidermidis; parameters: key: A: Peptide aggregates; B: Less hyphal formation; Clumps; Diffuse clumps and small polyps; F: Diffuse growth; H: Thin; I: Growth inhibition; Microcolony formation; Rippled; Small polyps; Thick; W: Halo formation on top, microlonies on bottom; further: test concentration or dose not given here
[6] = test system: E. faecalis; experiment: as above; format: cell-based, Enterococcus faecalis; parameters: key: A: Peptide aggregates; B: Less hyphal formation; Clumps; Diffuse clumps and small polyps; F: Diffuse growth; H: Thin; I: Growth inhibition; Microcolony formation; Rippled; Small polyps; Thick; W: Halo formation on top, microlonies on bottom; further: test concentration or dose not given here
[7] = test system: S. pneumoniae; experiment: as above; format: cell-based, Streptococcus pneumoniae; parameters: key: A: Peptide aggregates; B: Less hyphal formation; Clumps; Diffuse clumps and small polyps; F: Diffuse growth; H: Thin; I: Growth inhibition; Microcolony formation; Rippled; Small polyps; Thick; W: Halo formation on top, microlonies on bottom; further: test concentration or dose not given here
[8] = test system: P. aeruginosa; experiment: as above; format: cell-based, Pseudomonas aeruginosa; parameters: key: A: Peptide aggregates; B: Less hyphal formation; Clumps; Diffuse clumps and small polyps; F: Diffuse growth; H: Thin; I: Growth inhibition; Microcolony formation; Rippled; Small polyps; Thick; W: Halo formation on top, microlonies on bottom; further: test concentration or dose not given here
[9] = test system: microorganisms (e.g., bacteria, yeasts, fungi); experiment: Targeting peptide binding to target microorganisms (Table 3); conditions: preferably 1x PBS; for Target(s) (microorganisms bound by the targeting peptide): peptide binding in aqueous buffers varied by peptide solubility
[10] = test system: M. luteus; experiment: Kill or inhibit growth/proliferation; morphology, biofilm and growth disruption (Tables 5, 6); format: cell-based, Micrococcus luteus; parameters: key: A: Peptide aggregates; B: Less hyphal formation; Clumps; Diffuse clumps and small polyps; F: Diffuse growth; H: Thin; I: Growth inhibition; Microcolony formation; Rippled; Small polyps; Thick; W: Halo formation on top, microlonies on bottom; further: test concentration or dose not given here
[11] = test system: S. mutans; experiment: as above; format: cell-based, Streptococcus mutans; parameters: key: A: Peptide aggregates; B: Less hyphal formation; Clumps; Diffuse clumps and small polyps; F: Diffuse growth; H: Thin; I: Growth inhibition; Microcolony formation; Rippled; Small polyps; Thick; W: Halo formation on top, microlonies on bottom; further: test concentration or dose not given here
[12] = microorganism(s) the targeting peptide binds, binding in aqueous buffers depending on peptide solubility
[13] = microorganism the targeting peptide binds, binding in aqueous buffers varied by peptide solubility

Row | Substance | Organism, effect [2] | Activities [3] | Organism, effect [4] | Organism, effect [5] | Organism, effect [6] | Organism, effect [7] | Organism, effect [8] | further results
1 | ALCSVIKAIELGIINVHLQ [PF-366] | E. coli (C) | G B | MRSA (D) | S. epidermidis (R) | E. faecalis (C) | S. pneumoniae (C) | P. aeruginosa (A) | Organism, effect [1]: C. jejuni (D)
2 | LSPRPIIVSRRSRADNNNDWSR [PF-143] | – | G B | – | – | – | – | P. aeruginosa (C) | Target(s) [9, 12]: S. epidermidis and MRSA and C. jeikeium
3 | PF-020: peptide having multiple activities (chain 1 MKIILLLFLIFGFIVVVTLKSEHQLTLFSI; chain 2 MKIILLLFLIFGFIVVVTLKSEHQLTLFSI; Peptide with targeting and/or antimicrobial activity) | – | G B | MRSA (C) | S. epidermidis (C) | – | S. pneumoniae (D) | – | Organism, effect [10]: M. luteus (C); Target(s) [9, 13]: S. epidermidis and M. luteus and C. albicans and MRSA and S. pneumoniae and E. faecalis; Organism, effect [11]: S. mutans (F)
4 | PF-051: peptide having multiple activities (chain 1 RFFNFEIKKSTKVDYVFAHVDLSDV; chain 2 RFFNFEIKKSTKVDYVFAHVDLSDV; Peptide with targeting and/or antimicrobial activity) | – | G B | MRSA (D) | S. epidermidis (D) | – | S. pneumoniae (D) | – | Organism, effect [10]: M. luteus (C); Target(s) [9, 13]: S. epidermidis and M. luteus and P. aeruginosa and C. albicans and MRSA and S. pneumoniae and E. faecalis; Organism, effect [11]: S. mutans (D)
5 | PF-128: peptide having multiple activities (GIKVVAARFEEIQFSENFDSIILA; Peptide with targeting and/or antimicrobial activity) | – | G B | – | S. epidermidis (D) | – | – | P. aeruginosa (C) | Target(s) [9, 12]: M. luteus; also recorded: P. aeruginosa; also recorded: E. faecalis
6 | PF-355: peptide having multiple activities (chain 1 WIAIGLLLYFSLKNQ; chain 2 WIAIGLLLYFSLKNQ; Peptide with targeting and/or antimicrobial activity) | E. coli (C) | G B | MRSA (A) | S. epidermidis (C) | E. faecalis (D) | S. pneumoniae (D) | P. aeruginosa (A) | Organism, effect [1]: C. jejuni (D)
7 | PF-356: peptide having multiple activities (chain 1 VSIKIGAIVIGMIGLMELLTE; chain 2 VSIKIGAIVIGMIGLMELLTE; Peptide with targeting and/or antimicrobial activity) | – | G B | MRSA (C) | S. epidermidis (S) | E. faecalis (R) | S. pneumoniae (R) | P. aeruginosa (A) | Organism, effect [1]: C. jejuni (D)
8 | PF-454: peptide having multiple activities (chain 1 MSVFVPVTNIFMFIMSPIFNVNLLHFKVYI; chain 2 MSVFVPVTNIFMFIMSPIFNVNLLHFKVYI; Peptide with targeting and/or antimicrobial activity) | E. coli (R) | G B | MRSA (C) | S. epidermidis (C) | E. faecalis (C) | S. pneumoniae (R) | P. aeruginosa (H) | –
9 | PF-458: peptide having multiple activities (chain 1 ISLIIFIMLFVVALFKCITNYKHQS; chain 2 ISLIIFIMLFVVALFKCITNYKHQS; Peptide with targeting and/or antimicrobial activity) | – | G B | MRSA (M) | – | – | S. pneumoniae (M) | P. aeruginosa (H) | –
10 | PF-535 (NIKTRKRALKIIKQHQRSK; Peptide with targeting and/or antimicrobial activity) | – | – | – | – | – | S. pneumoniae (H) | P. aeruginosa (H) | –
11 | PF-536 (MEPIPHIMIIANQIGIIIEKA; Peptide with targeting and/or antimicrobial activity) | E. coli (R) | – | MRSA (C) | S. epidermidis (C) | E. faecalis (C) | S. pneumoniae (M) | P. aeruginosa (H) | –
12 | PF-543: peptide having multiple activities (chain 1 NILFGIIGFVVAMTAAVIVTAISIAK; chain 2 NILFGIIGFVVAMTAAVIVTAISIAK; Peptide with targeting and/or antimicrobial activity) | E. coli (C) | G B | MRSA (D) | S. epidermidis (D) | – | S. pneumoniae (D) | – | Organism, effect [10]: M. luteus (C); Organism, effect [11]: S. mutans (S)
13 | PF-776: peptide having multiple activities (VSILLYLSATIILPNVLRLLVARAIIVRV; Peptide with targeting and/or antimicrobial activity) | – | G B | – | – | – | – | – | Organism, effect (morphology, biofilm and growth disruption) [10]: M. luteus (C); Organism, effect (morphology, biofilm and growth disruption) [2]: E. coli (C); Organism, effect (morphology, biofilm and growth disruption) [4]: MRSA (D); Target(s) (microorganisms bound by the targeting peptide) [9]: S. epidermidis and M. luteus and P. mirabilis and C. albicans and MRSA and S. pneumoniae and E. faecalis; Organism, effect (morphology, biofilm and growth disruption) [5]: S. epidermidis (D); Organism, effect (morphology, biofilm and growth disruption) [7]: S. pneumoniae (C); Organism, effect (morphology, biofilm and growth disruption) [11]: S. mutans (D)
14 | PF-C139: peptide having multiple activities (LLASHPERLSLGVFFVYRVLHLLLENT; Peptide with targeting and/or antimicrobial activity) | – | G B | – | – | – | – | – | Target(s) (microorganisms bound by the targeting peptide) [9]: A. naeslundii; also recorded: F. nucleatum; also recorded: P. gingivalis; also recorded: S. mutans; also recorded: T. denticola; Organism, effect (morphology, biofilm and growth disruption) [11]: S. mutans (F)
15 | PF-C142: peptide having multiple activities (DFPPLSFFRRRFHAYTAPIDNFFGANPF; Peptide with targeting and/or antimicrobial activity) | – | G B | – | – | – | – | – | Target(s) (microorganisms bound by the targeting peptide) [9]: A. naeslundii; also recorded: F. nucleatum; also recorded: P. gingivalis; also recorded: S. mutans; also recorded: T. denticola; Organism, effect (morphology, biofilm and growth disruption) [11]: S. mutans (I)
16 | PF-C281: peptide having multiple activities (KKEKLLTAIRLQHRAEIRGYFTIFFLFFRI; Peptide with targeting and/or antimicrobial activity) | – | G B | – | – | – | – | – | Target(s) (microorganisms bound by the targeting peptide) [9]: A. naeslundii; also recorded: F. nucleatum; also recorded: P. gingivalis; also recorded: S. mutans; also recorded: T. denticola; Organism, effect (morphology, biofilm and growth disruption) [11]: S. mutans (F)
